These results are taken from patent US6436952B1, “Benzonaphthyridine-N-oxides comprising a PDE3 and PDE4 inhibiting activity” (BYK Gulden Lomberg Chemische Fabrik GmbH, priority 1998, dated 2002).

In one data set the target is PDE4 (cAMP-specific). Description: Inhibition of PDE isoenzymes: PDE4 in cytosol of human polymorphonuclear leukocytes. The settings on record: cytosol of human PMNL, cAMP as substrate, motapizone (1 μM) present. It counts as biochemical. As to the method: (§1) The PDE activity was determined according to Thompson et al. (1) with some modifications (2). The test samples contained 40 mM tris HCl (pH 7.4), 5 mM MgCl2, 0.5 μM cAMP or cGMP, [^3H]cAMP or [^3H]cGMP (about 50 000 cpm/sample), the PDE isoenzyme-specific additions described in greater detail below, the indicated concentrations of inhibitor and an aliquot of the enzyme solution in a total sample volume of 200 μl. […] After preincubation at 37° C. for 5 minutes, the reaction was started by addition of the substrate (cAMP or cGMP). The samples were incubated at 37° C. for a further 15 min. The reaction was terminated by addition of 50 μl of 0.2N HCl. After cooling on ice for 10 minutes and addition of 25 μg of 5′-nucleotidase (snake venom from Crotalus atrox), the mixture was again incubated at 37° C. for 10 min and the samples were then applied to QAE Sephadex A-25 columns. The columns were eluted with 2 ml of 30 mM ammonium formate (pH 6.0). The radioactivity of the eluate was measured and corrected by the corresponding blank values. The proportion of hydrolyzed nucleotide in no case exceeded 20% of the original substrate concentration. […]
(§2) The lC50 values were determined from the concentration-inhibition curves by nonlinear regression using the GraphPad InPlot™ program (GraphPad Software Inc., Philadelphia, USA).

In the next data set the target is T1, PDE3 (cGMP-inhibited) (Homo sapiens, UniProt Q14432).
T1 construct: were investigated in homogenates of human blood platelets; from tissue; host or cells: homogenate of human blood platelets
T1 sequence (Q14432 whole entry): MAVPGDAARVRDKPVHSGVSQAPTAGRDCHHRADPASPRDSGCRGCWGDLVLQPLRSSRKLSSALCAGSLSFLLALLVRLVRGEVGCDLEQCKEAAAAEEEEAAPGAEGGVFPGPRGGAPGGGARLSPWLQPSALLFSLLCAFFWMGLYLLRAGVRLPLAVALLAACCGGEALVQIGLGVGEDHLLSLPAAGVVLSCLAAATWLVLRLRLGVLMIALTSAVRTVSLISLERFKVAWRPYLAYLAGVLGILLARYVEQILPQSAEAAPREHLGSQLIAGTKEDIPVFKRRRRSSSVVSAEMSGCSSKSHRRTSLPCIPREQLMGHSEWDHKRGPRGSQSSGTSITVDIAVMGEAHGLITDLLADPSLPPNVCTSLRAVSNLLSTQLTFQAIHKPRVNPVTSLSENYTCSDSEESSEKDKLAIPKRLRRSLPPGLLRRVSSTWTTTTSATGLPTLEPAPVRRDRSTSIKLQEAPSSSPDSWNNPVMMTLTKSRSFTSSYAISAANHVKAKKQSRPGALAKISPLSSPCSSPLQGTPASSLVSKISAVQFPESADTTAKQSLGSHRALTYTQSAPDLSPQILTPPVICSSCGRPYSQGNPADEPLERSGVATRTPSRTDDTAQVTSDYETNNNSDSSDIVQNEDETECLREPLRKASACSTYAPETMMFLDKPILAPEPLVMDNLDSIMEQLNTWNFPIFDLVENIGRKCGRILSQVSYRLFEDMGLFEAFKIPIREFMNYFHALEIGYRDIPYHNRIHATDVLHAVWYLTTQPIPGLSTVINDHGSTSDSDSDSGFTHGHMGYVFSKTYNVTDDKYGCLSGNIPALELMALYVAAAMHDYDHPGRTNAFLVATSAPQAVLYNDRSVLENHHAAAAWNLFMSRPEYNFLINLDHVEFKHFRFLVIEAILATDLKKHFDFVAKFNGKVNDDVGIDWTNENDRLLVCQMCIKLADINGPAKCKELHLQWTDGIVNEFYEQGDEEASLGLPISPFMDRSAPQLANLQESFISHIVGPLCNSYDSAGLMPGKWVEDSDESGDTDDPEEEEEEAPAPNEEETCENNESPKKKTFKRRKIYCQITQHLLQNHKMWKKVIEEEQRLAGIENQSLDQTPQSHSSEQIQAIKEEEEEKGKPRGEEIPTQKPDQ
Description: Inhibition of PDE isoenzymes: PDE3 in homogenates of human blood platelets. It counts as biochemical. Conditions: cAMP as substrate, read-out: PDE3 [-log IC50, mol/l] (converted). As to the method:
as §1, §2

Molecules are shown by their SMILES.

Broadly, the melting point is the temperature of the solid-liquid transition. `CCOc1cc2c(cc1OC)C(c1ccc(-c3nnn(CC)n3)cc1)=NC1CC[N+](C)([O-])CC21` (stereo not drawn) [Compound 1, cis-9-Ethoxy-8-methoxy-2-methyl-6-[4-(2H-2-ethyltetrazol-5-yl)phenyl]-1,2,3,4,4a,10b-hexahydrobenzo[c][1,6]naohthyridine N-2-Oxide] showed a melting point of 168 to 170 °C. Further, at PDE4 (cAMP-specific), the “PDE4 [-log IC50, mol/l]” value is 7.53 -log IC50, mol/l. In addition, the IC50 at PDE3 (cGMP-inhibited) is 776 nM.
